From patent US4518789A, “Phenyl alpha-acyloxyacetamide derivatives and their therapeutic use” (priority 1983, dated 1985)

test system: Eczemas, and Other Pruritic Disorders; assay: Topical anti-pruritic effect in patients with pruritic disorders; format: in vivo, human; conditions: 2 to 5%, after initial anti-pruritic effect
Description: Patients with various kinds of pruritic disorders participated in this study. The cases included atopic eczema, patchy eczema, chronic eczema of the hands, lichen simplex chronicus, contact allergic eczema, pruritus of the aged, pruritus of hepatic origin, pruritus ani, pruritus vulvae, scalp pruritus and pruritus of other disorders such as mycosis fungoides, psoriasis and pityriasis rubra pilaris.
Therapeutic compositions containing phenyl-alpha-acyloxyacetamides at 2 to 5% concentrations in cream, ointment, lotion or solution were prepared according to the Examples. The medicinal compositions were topically applied by the patient in an amount sufficient to cover the itching area of skin. Applications were made one to two times daily or as frequently as necessary and without occlusive dressings.
Two parameters have been used to compare degrees of anti-pruritic effect of phenyl-alpha-acyloxyacetamides. The first parameter is whether the relief of itching is complete (2+) or incomplete (1+). The second parameter is the number of hours the patient stays free of pruritus after the initial anti-pruritic effect. […] Therefore, the overall anti-pruritic effect of a compound may range from 2+ to 4+. […] 4+ for complete relief and lasting for more than 8 hours.

Row | SMILES | duration of anti-pruritic effect
1 | CCC(=O)OC(C(=O)NCCc1ccccc1)(c1ccccc1)c1ccccc1 [N-phenethyl diphenyl-alpha-propionyloxyacetamide] | less than 8 hours

same assay, conditions: all patients tested

Row | SMILES | relief of itching (in words)
2 | CCC(=O)OC(C(=O)NCCc1ccccc1)(c1ccccc1)c1ccccc1 [N-phenethyl diphenyl-alpha-propionyloxyacetamide] | completely abolished itch sensations

same assay, conditions: first category compounds, 2 to 5%

Row | SMILES | Anti-pruritic Effect
3 | CC(=O)OC(C(=O)NCCSCCO)c1ccccc1 (stereo not drawn) [N-hydroxyethylthioethylphenyl-alpha-acetoxyacetamide] | 3+
4 | COc1ccc(CCNC(=O)C(OC(C)=O)c2ccccc2)cc1 (stereo not drawn) [N-p-methoxyphenethyl phenyl-alpha-acetoxyacetamide] | 4+ (complete relief and lasting for more than 8 hours)
5 | CC(=O)OC(C(=O)NC(C)(C)C)c1ccccc1 (stereo not drawn) [N-t-butyl phenyl-alpha-acetoxyacetamide] | 4+ (complete relief and lasting for more than 8 hours)
6 | CC(=O)OC(C(=O)NCc1ccc(Cl)cc1)c1ccccc1 (stereo not drawn) [N-p-chlorobenzyl phenyl-alpha-acetoxyacetamide] | 4+ (complete relief and lasting for more than 8 hours)
7 | COc1ccc(CCNC(=O)C(OC(C)=O)c2ccccc2)cc1OC (stereo not drawn) [N-(3,4 -dimethoxyphenethyl)phenyl-alpha-acetoxyacetamide] | 4+ (complete relief and lasting for more than 8 hours)
8 | COc1ccc(CNC(=O)C(OC(C)=O)c2ccccc2)cc1 (stereo not drawn) [N-p-methoxybenzyl phenyl-alpha-acetoxyacetamide] | 4+ (complete relief and lasting for more than 8 hours)
9 | CNC(=O)C(OC(C)=O)c1ccccc1 (stereo not drawn) [N-methyl phenyl alpha-acetoxyacetamide] | 3+
10 | CC(=O)OC(C(=O)NC(C)C)c1ccccc1 (stereo not drawn) [N-isopropyl phenyl-alpha-acetoxyacetamide] | 3+
11 | CCN(CC)C(=O)C(OC(C)=O)c1ccccc1 (stereo not drawn) [N,N-diethyl phenyl-alpha-acetoxyacetamide] | 4+ (complete relief and lasting for more than 8 hours)
12 | CC(=O)OC(C(=O)NCc1ccccc1)c1ccccc1 (stereo not drawn) [N-benzyl phenyl-alpha-acetoxyacetamide] | 4+ (complete relief and lasting for more than 8 hours)
13 | CCNC(=O)C(OC(=O)Cc1ccccc1)c1ccccc1 (stereo not drawn) [N-ethyl phenyl-alpha-phenylacetoxyacetamide] | 4+ (complete relief and lasting for more than 8 hours)
14 | CC(=O)OC(C(=O)N(Cc1ccccc1)Cc1ccccc1)c1ccccc1 (stereo not drawn) [N,N-dibenzyl phenyl-alpha-acetoxyacetamide] | 3+
15 | CCC(=O)OC(C(=O)NCCc1ccccc1)c1ccccc1 (stereo not drawn) [N-phenethyl phenyl-alpha-propionyloxyacetamide] | 3+

same assay, conditions: intermediate and related compounds

Row | SMILES | Anti-pruritic Effect
16 | CC(=O)OC(C(=O)NCc1cccnc1)c1ccccc1 (stereo not drawn) [N-3'-picolyl phenyl-alpha-acetoxyacetamide] | 3+
17 | CC(=O)OC(C(=O)OC(C(=O)NCCc1ccccc1)c1ccccc1)c1ccccc1 (stereo not drawn) [N-phenethyl phenyl-alpha-(o-acetylmandeloyloxy)acetamide] | 3+
18 | O=C(NCCc1ccccc1)C(O)c1ccccc1 (stereo not drawn) [N-phenethyl phenyl-alpha-hydroxyacetamide] | 3+
19 | CCN(CC)CCNC(=O)C(OC(C)=O)c1ccccc1 (stereo not drawn) [N-(N',N'-diethylaminoethyl)phenyl-alpha-acetoxyacetamide] | 3+

test system: calming or sedative effects; assay: Tranquilizing effect, oral administration in dogs; format: in vivo; conditions: not given
Method: Hairless mice, white hairy mice and dogs were used in these studies.
Three dogs weighing between 10 to 20 kg were given orally N-phenethyl phenyl-alpha-acetoxyacetamide or N-ethyl phenyl-alpha-acetoxyacetamide in gelating capsules at doses of 5 to 10 mg per kg.

Row | SMILES | soporific or drowsy effects
20 | CN1C(=O)CN=C(c2ccccc2)c2cc(Cl)ccc21 [Valium] | soporific and drowsy effects
21 | CN(C)CCOC(c1ccccc1)c1ccccc1 [Benadryl] | soporific and drowsy effects

same assay, conditions: test compounds 5 to 10 mg per kg

Row | SMILES | tranquilizing / sedative effect
22 | CN1C(=O)CN=C(c2ccccc2)c2cc(Cl)ccc21 [Valium] | substantial sedative effects
23 | CN(C)CCOC(c1ccccc1)c1ccccc1 [Benadryl] | substantial sedative effects

test system: itch provoked by papain or histamine dihydrochloride; assay: Anti-pruritic effect on normal human skin (papain or histamine induced itch); format: in vivo; conditions: 2 to 5% topical, normal human adult volunteers
Method: Itch provoking pruritic compositions were prepared as follows: papain 0.5% solution was prepared by dissolving papain 50 mg in 10 ml of saline, and histamine 0.2% solution was prepared by dissolving histamine dihydrochloride 20 mg in 10 ml of saline. Itching was provoked or induced as follows: a pruritic composition in a volume of 0.05 ml containing papain or histamine dihydrochloride as a pruritic agent was topically applied on the flexor forearm of normal human adult volunteers and the skin site was gently pricked rapidly through the solution with a 26-gauge needle to the level of the papillary dermis as described by Bernstein et al. (J. E. Bernstein, R. M. Swift, K. Soltani and A. L. Lorincz: Antipruritic Effect of an Opiate Antagonist, Naloxone Hydrochloride in Journal of Investigative Dermatology 78, 82-83, 1982). This technique provoked or induced itch sensation at the test skin site within a few minutes following the topical application of the pruritic composition. After itch sensation had been induced a composition containing 2 to 5% N-ethyl phenyl-alpha-acetoxyacetamide, N-phenethyl phenyl-alpha-acetoxyacetamide or other phenyl-alpha-acyloxyacetamide derivatives of the instant invention was topically applied on the pruritic skin site. The vehicle alone cream containing no active ingredient was used as a control.

Row | SMILES | Anti-pruritic Effect
24 | CC(=O)OC(C(=O)NCCc1ccccc1)(c1ccccc1)c1ccccc1 [N-phenethyl diphenyl-alpha-acetoxyacetamide] | substantial anti-pruritic effect
